Results as given in PMC10709440, “High-throughput ligand profile characterization in novel cell lines expressing seven heterologous insect olfactory receptors for the detection of volatile plant biomarkers” (Scientific Reports, 2023).
Like-named read-outs stand apart in the source and are kept apart here.

Experiments:
[1] = target: T1, Drosophila OR98a (Drosophila melanogaster, UniProt Q9VAZ3); assay: Calcium ion fluorescence (GCaMP6) assay, OR98a stable HEK293 cell line; assay type: cell-based; settings: for OR98a response (VUAA1-normalized) at 1 μM / OR98a response (VUAA1-normalized) at 10 μM / OR98a response (VUAA1-normalized) at 100 μM: OR98a cell line
T1 construct: expressed in transfected cells
T1 sequence (Q9VAZ3 1-397): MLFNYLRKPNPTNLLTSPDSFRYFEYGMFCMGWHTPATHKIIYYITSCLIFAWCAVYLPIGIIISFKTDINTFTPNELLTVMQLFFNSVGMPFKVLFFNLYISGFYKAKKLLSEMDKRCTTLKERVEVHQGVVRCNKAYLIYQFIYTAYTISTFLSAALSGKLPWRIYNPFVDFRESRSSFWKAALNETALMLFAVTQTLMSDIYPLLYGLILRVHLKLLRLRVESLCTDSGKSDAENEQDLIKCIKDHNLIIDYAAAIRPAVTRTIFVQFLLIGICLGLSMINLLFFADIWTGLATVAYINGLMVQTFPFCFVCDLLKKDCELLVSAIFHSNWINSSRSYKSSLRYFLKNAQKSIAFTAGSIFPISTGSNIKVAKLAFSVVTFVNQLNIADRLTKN
T1 sequence (Q9VNB5 1-486 partner): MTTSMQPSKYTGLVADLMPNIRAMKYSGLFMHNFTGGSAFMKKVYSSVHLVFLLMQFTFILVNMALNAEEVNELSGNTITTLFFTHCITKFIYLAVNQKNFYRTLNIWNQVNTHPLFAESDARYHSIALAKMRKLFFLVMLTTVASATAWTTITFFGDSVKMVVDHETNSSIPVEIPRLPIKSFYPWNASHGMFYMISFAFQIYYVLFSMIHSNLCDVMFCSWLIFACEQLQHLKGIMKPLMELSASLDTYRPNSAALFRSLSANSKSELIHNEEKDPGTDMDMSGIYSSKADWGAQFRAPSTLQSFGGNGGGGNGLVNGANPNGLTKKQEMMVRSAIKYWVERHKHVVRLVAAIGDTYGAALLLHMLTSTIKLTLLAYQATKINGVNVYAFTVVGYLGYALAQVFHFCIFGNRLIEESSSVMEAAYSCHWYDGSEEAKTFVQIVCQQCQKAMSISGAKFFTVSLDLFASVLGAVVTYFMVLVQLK
Procedure: (§1) These VUAA1 normalized ∆F values were used to compare the different receptors and ligands.
(§2) The concentration-dependent effect of the reference ligands on their cognate cell lines was examined in more detail. Twelve different ligand concentrations were measured on each cell line in an overall 0.01 μM to 100 μM concentration range with 5 repetitions with three technical replicates each time.
(§3) Twelve thousand to 18,000 cells were plated into each well of a black wall, transparent bottom 384-well microplate (Greiner) 48 h or 72 h before the measurements and were simultaneously treated with 1 μg/mL doxycycline. […] The plate has 24 columns, thus we could record responses in up to eight different cell lines in each plate. On the day of the experiment, the growth medium was replaced with 20 µL assay buffer/well (140 mM NaCl, 5 mM KCl, 2 mM CaCl2, 1 mM MgCl2, 5 mM HEPES-Na, 20 mM glucose, pH 7.3, 340 mOsm). […] Baseline fluorescence (F0) was recorded for 5 s, after which 7 µL VOC buffer (140 mM NaCl, 5 mM KCl, 2 mM CaCl2, 1 mM MgCl2, 5 mM HEPES-Na, 31 mM glucose, 0.1% DMSO, pH 7.3, 340 mOsm) was injected into each well in one row and the fluorescence response was recorded for an additional 30 s, at a rate of one read/sec. VOC solutions (VOC buffer with 4× concentration of the final measured VOC concentration, 9 µL/well was injected) were measured on the same wells in a second round with the same protocol. Each individual concentration of a specific VOC sample was recorded in three wells for the same cell line on the same microplate. The raw data were exported in xls file format, F0 and FMAX values, and the fluorescence intensity changes (∆F) were calculated in Excel (Microsoft) (Supplementary file Data summary.xlsx) using the following equation: ΔF=FMAX-F0/F0 (see also Fig. 1C). On each plate, we recorded the response of each cell line to 50 µM VUAA1. The average of these ∆F values of each cell line were used to calculate the VUAA1-normalized values for the rest of the plate, by dividing VOC response ∆F values by the average VUAA1 response ∆F value of the corresponding OR cell line. Each VOC-OR combination was measured three times as technical replicates. […] The average of these replicates were used as one ∆F and VUAA1-normalized ∆F in the following analysis.
(§4) In the next rows we tested the reference VOCs (or other VOCs known to activate the corresponding cell lines), in order to test if all cell lines are responsive. The remaining rows were used to test VOCs with unknown effect.
(§5) The recorded FMAX, F0, ∆F, VUAA1-normalized ∆F values, as well as the OR name, the name of the tested sample, and the final concentration for each well were copied into supplementary file Data summary.xlsx, that was used to summarize all the plates recorded. Here, the averages of the measurements were calculated for each receptor-VOC-concentration combination.

[2] = target: T2, Drosophila OR85b (Drosophila melanogaster, UniProt Q9VHQ7); assay: Calcium ion fluorescence (GCaMP6) assay, OR85b stable HEK293 cell line; assay type: cell-based; settings: for Average response / OR85b response (VUAA1-normalized) at 1 μM / OR85b response (VUAA1-normalized) at 10 μM / OR85b response (VUAA1-normalized) at 100 μM: OR85b cell line; for Average response: VUAA1-normalized response, mean of biological replicates
T2 construct: expressed in transfected cells
T2 sequence (Q9VHQ7 1-390): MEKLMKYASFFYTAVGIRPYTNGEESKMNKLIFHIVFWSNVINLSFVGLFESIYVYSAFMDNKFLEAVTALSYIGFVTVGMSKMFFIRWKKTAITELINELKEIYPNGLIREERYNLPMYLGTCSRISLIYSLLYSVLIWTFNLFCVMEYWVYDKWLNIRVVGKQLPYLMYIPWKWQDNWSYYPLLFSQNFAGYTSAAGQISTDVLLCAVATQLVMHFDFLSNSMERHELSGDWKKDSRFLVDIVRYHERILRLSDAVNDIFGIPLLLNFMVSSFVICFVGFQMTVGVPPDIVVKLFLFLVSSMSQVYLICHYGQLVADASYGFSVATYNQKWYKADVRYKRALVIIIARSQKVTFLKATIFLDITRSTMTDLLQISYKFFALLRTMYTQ
T2 sequence (Q9VNB5 1-486 partner): T1 sequence (Q9VNB5 1-486 partner)
Procedure: as §1, §2, §3, §4, §5

[3] = HEK293, read-out: Average response
[4] = HEK293, read-out: OR98a response (VUAA1-normalized response)
[5] = concentration 1, normalized fluorescence change, values below 0.05 threshold given as 0
[6] = concentration 10, normalized fluorescence change, values below 0.05 threshold given as 0
[7] = concentration 100, normalized fluorescence change, values below 0.05 threshold given as 0
[8] = HEK293, read-out: OR85b response (VUAA1-normalized response)
[9] = ligand concentration 1 (unit not given), 0.05 threshold, values below shown as 0
[10] = ligand concentration 10 (unit not given), 0.05 threshold, values below shown as 0
[11] = ligand concentration 100 (unit not given), 0.05 threshold, values below shown as 0
[12] = HEK293, read-out: OR85b Average response (VUAA1-normalized)
[13] = ligand concentration 1 (unit not given), threshold 0.05, below shown as 0
[14] = ligand concentration 10 (unit not given), threshold 0.05, below shown as 0
[15] = ligand concentration 100 (unit not given), threshold 0.05, below shown as 0

Structure (SMILES)	activation at 1 µM [1, 3] [%]	activation at 10 µM [1, 3] [%]	activation at 100 µM [1, 3] [%]	activation at 1 µM [1, 4] [%]	activation at 10 µM [1, 4] [%]	activation at 100 µM [1, 4] [%]	DF norm AVERAGE OR98a [1, 5]	DF norm AVERAGE OR98a [1, 6]	DF norm AVERAGE OR98a [1, 7]	activation at 1 µM [2, 8] [%]	activation at 10 µM [2, 8] [%]	activation at 100 µM [2, 8] [%]	Average response ([2]; cc. 1 µM)	Average response ([2]; cc. 10 µM)	Average response ([2]; cc. 100 µM)	DF norm AVERAGE OR85b [2, 5]	DF norm AVERAGE OR85b [2, 6]	DF norm AVERAGE OR85b [2, 7]	OR98a response (VUAA1-normalized) at 1 μM ([1]; VOC concentration 1 μM)	OR98a response (VUAA1-normalized) at 10 μM ([1]; VOC concentration 10 μM)	also measured
Cc1ccc(O)cc1 [4-methylphenol]	0	2	2.76	0	0	0	0	0	0	0	0	0	0.00	0.04	0.00	0	0	0	–	–	–
CCCCCCCCCCC [undecane]	2.26	0	8	–	–	–	–	–	–	–	–	–	0.0284	0.05	0.11	–	–	–	0.00	0.00	OR98a response (VUAA1-normalized) at 100 μM ([1]; VOC concentration 100 μM): 0.08; DF norm AVERAGE OR98a [1, 9]: 0; DF norm AVERAGE OR98a [1, 10]: 0; DF norm AVERAGE OR98a [1, 11]: 0.08228; activation at 1 µM [2, 12]: 3%; activation at 10 µM [2, 12]: 5%; activation at 100 µM [2, 12]: 11%; OR85b response (VUAA1-normalized) at 1 μM ([2]; VOC concentration 1 μM): 0.00; OR85b response (VUAA1-normalized) at 10 μM ([2]; VOC concentration 10 μM): 0.05; OR85b response (VUAA1-normalized) at 100 μM ([2]; VOC concentration 100 μM): 0.11; DF norm AVERAGE OR85b [2, 9]: 0; DF norm AVERAGE OR85b [2, 10]: 0.05165; DF norm AVERAGE OR85b [2, 11]: 0.1131
COC(=O)c1ccccc1O [methyl salicylate]	3	1.79	4	–	–	–	–	–	–	–	–	–	0.00	0.0263	0.13	–	–	–	0.00	0.00	OR98a response (VUAA1-normalized) at 100 μM ([1]; VOC concentration 100 μM): 0.00; DF norm AVERAGE OR98a [1, 13]: 0; DF norm AVERAGE OR98a [1, 14]: 0; DF norm AVERAGE OR98a [1, 15]: 0; activation at 1 µM [2, 12]: 0%; activation at 10 µM [2, 12]: 3%; activation at 100 µM [2, 12]: 13%; OR85b response (VUAA1-normalized) at 1 μM ([2]; VOC concentration 1 μM): 0.00; OR85b response (VUAA1-normalized) at 10 μM ([2]; VOC concentration 10 μM): 0.00; OR85b response (VUAA1-normalized) at 100 μM ([2]; VOC concentration 100 μM): 0.13; DF norm AVERAGE OR85b [2, 13]: 0; DF norm AVERAGE OR85b [2, 14]: 0; DF norm AVERAGE OR85b [2, 15]: 0.1286
CC/C=C\CCO [E-3-hexenol]	–	–	–	–	–	–	–	–	–	–	–	–	–	–	–	–	–	–	–	–	OR98a response (VUAA1-normalized response) ([1]; VOC concentration 1 μM): 0.00; OR98a response (VUAA1-normalized response) ([1]; VOC concentration 10 μM): 0.00; OR98a response (VUAA1-normalized response) ([1]; VOC concentration 100 μM): 0.00; OR85b response (VUAA1-normalized response) ([2]; VOC concentration 1 μM): 0.00; OR85b response (VUAA1-normalized response) ([2]; VOC concentration 10 μM): 0.00; OR85b response (VUAA1-normalized response) ([2]; VOC concentration 100 μM): 0.00
Cc1ccc(C(C)C)cc1 [p-cymene]	0	4	3.65	–	–	–	–	–	–	–	–	–	0.00	0.12	0.09	–	–	–	0.00	0.00	OR98a response (VUAA1-normalized) at 100 μM ([1]; VOC concentration 100 μM): 0.00; DF norm AVERAGE OR98a [1, 13]: 0; DF norm AVERAGE OR98a [1, 14]: 0; DF norm AVERAGE OR98a [1, 15]: 0; OR85b response (VUAA1-normalized) at 1 μM ([2]; VOC concentration 1 μM): 0.00; OR85b response (VUAA1-normalized) at 10 μM ([2]; VOC concentration 10 μM): 0.12; OR85b response (VUAA1-normalized) at 100 μM ([2]; VOC concentration 100 μM): 0.09; DF norm AVERAGE OR85b [2, 13]: 0; DF norm AVERAGE OR85b [2, 14]: 0.1172; DF norm AVERAGE OR85b [2, 15]: 0.09049
CCCC(O)CC (stereo not drawn) [3-hexanol]	0	19	1.15	0	19	0	0	0.194	0	0	10	0	0.00	0.10	0.0225	0	0.09908	0	–	–	–
CCCCC(C)=O [2-hexanone]	3	4.36	3.5	0	0	0	0	0	0	0	6	0	0.00	0.06	0.0338	0	0.05777	0	–	–	–
CCOC(=O)CC [ethyl propionate]	2	2	1.5	0	0	0	–	–	–	0	0	9	0.00	0.037	0.09	–	–	–	–	–	DF norm AVERAGE OR98a [1, 13]: 0; DF norm AVERAGE OR98a [1, 14]: 0; DF norm AVERAGE OR98a [1, 15]: 0; DF norm AVERAGE OR85b [2, 13]: 0; DF norm AVERAGE OR85b [2, 14]: 0; DF norm AVERAGE OR85b [2, 15]: 0.09327
